Assay results reported in PubChem BioAssay AID1963850 (Molecular Pharmacology Branch, DTP, NCI, 2024).

Test system: 192522-019-R-J2-PDC complex tumor spheroid viability
Experiment: Anticancer human tumor 192522-019-R-J2-PDC patient-derived colon adenocarcinoma cell line growth inhibition [POLQ]
Settings: for IC50: curve of first compound; for viability, T/C: stronger effect = lower value
Procedure, shortened: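 Growth inhibition in 3D: complex spheroids (tumor PDC, HUVEC, MSC) treated with POLQ inhibitor combinations; where Cmax unknown, highest tested concentration 10 microM, except SN-38 at 1 microM.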

[1] = second compound 0.0316 µM, first compound 0.0316 µM
[2] = second compound 0.0316 µM, first compound 0.1 µM
[3] = second compound 0.1 µM, first compound 0.0316 µM
[4] = second compound 0.1 µM, first compound 0.1 µM
[5] = second compound 0.316 µM, first compound 0.0316 µM
[6] = second compound 0.316 µM, first compound 0.1 µM
[7] = second compound 1 µM, first compound 0.0316 µM
[8] = second compound 1 µM, first compound 0.1 µM
[9] = second compound 3.16 µM, first compound 0.0316 µM
[10] = second compound 3.16 µM, first compound 0.1 µM
[11] = second compound 10 µM, first compound 0.0316 µM
[12] = second compound 10 µM, first compound 0.1 µM
[13] = second compound 0.0316 µM, first compound 0.316 µM
[14] = second compound 0.0316 µM, first compound 1 µM
[15] = second compound 0.0316 µM, first compound 3.16 µM
[16] = second compound 0.0316 µM, first compound 10 µM
[17] = second compound 0.1 µM, first compound 0.316 µM
[18] = second compound 0.1 µM, first compound 1 µM
[19] = second compound 0.1 µM, first compound 3.16 µM
[20] = second compound 0.1 µM, first compound 10 µM
[21] = second compound 0.316 µM, first compound 0.316 µM
[22] = second compound 0.316 µM, first compound 1 µM
[23] = second compound 0.316 µM, first compound 3.16 µM
[24] = second compound 0.316 µM, first compound 10 µM
[25] = second compound 1 µM, first compound 0.316 µM
[26] = second compound 1 µM, first compound 1 µM
[27] = second compound 1 µM, first compound 3.16 µM
[28] = second compound 1 µM, first compound 10 µM
[29] = second compound 3.16 µM, first compound 0.316 µM
[30] = second compound 3.16 µM, first compound 1 µM
[31] = second compound 3.16 µM, first compound 3.16 µM
[32] = second compound 3.16 µM, first compound 10 µM
[33] = second compound 10 µM, first compound 0.316 µM
[34] = second compound 10 µM, first compound 1 µM
[35] = second compound 10 µM, first compound 3.16 µM
[36] = second compound 10 µM, first compound 10 µM
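Further: spheroids exposed to drugs for seven days before reading.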
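Wherever viability, T/C is given: 100% = DMSO vehicle control viability in luminescence.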

## CC[C@@]1(O)C(=O)OCc2c1cc1n(c2=O)Cc2cc3c(CN(C)C)c(O)ccc3nc2-1 + COC1C(OC(N)=O)C(O)C(Oc2ccc3c(O)c(NC(=O)c4ccc(O)c(CC=C(C)C)c4)c(=O)oc3c2C)OC1(C)C
Second compound 0.0316 µM
  IC50: > 0.1 µM
Second compound 0.1 µM
  IC50: > 0.1 µM
Second compound 0.316 µM
  IC50: > 0.1 µM
Second compound 1 µM
  IC50: > 0.1 µM
Second compound 3.16 µM
  IC50: > 0.1 µM
Second compound 10 µM
  IC50: > 0.1 µM
Second compound 0.0316 µM, first compound 0.000316 µM
  viability, T/C: 113%
Second compound 0.0316 µM, first compound 0.001 µM
  viability, T/C: 95.6%
Second compound 0.0316 µM, first compound 0.00316 µM
  viability, T/C: 101%
Second compound 0.0316 µM, first compound 0.01 µM
  viability, T/C: 96.6%
[1]
  viability, T/C: 87.5%
[2]
  viability, T/C: 52.1%
Second compound 0.1 µM, first compound 0.000316 µM
  viability, T/C: 98.4%
Second compound 0.1 µM, first compound 0.001 µM
  viability, T/C: 103%
Second compound 0.1 µM, first compound 0.00316 µM
  viability, T/C: 102%
Second compound 0.1 µM, first compound 0.01 µM
  viability, T/C: 96%
[3]
  viability, T/C: 90.4%
[4]
  viability, T/C: 56.1%
Second compound 0.316 µM, first compound 0.000316 µM
  viability, T/C: 105%
Second compound 0.316 µM, first compound 0.001 µM
  viability, T/C: 106%
Second compound 0.316 µM, first compound 0.00316 µM
  viability, T/C: 102%
Second compound 0.316 µM, first compound 0.01 µM
  viability, T/C: 99.6%
[5]
  viability, T/C: 87.6%
[6]
  viability, T/C: 58.1%
Second compound 1 µM, first compound 0.000316 µM
  viability, T/C: 103%
Second compound 1 µM, first compound 0.001 µM
  viability, T/C: 99.6%
Second compound 1 µM, first compound 0.00316 µM
  viability, T/C: 105%
Second compound 1 µM, first compound 0.01 µM
  viability, T/C: 102%
[7]
  viability, T/C: 84.8%
[8]
  viability, T/C: 53.9%
Second compound 3.16 µM, first compound 0.000316 µM
  viability, T/C: 102%
Second compound 3.16 µM, first compound 0.001 µM
  viability, T/C: 99.1%
Second compound 3.16 µM, first compound 0.00316 µM
  viability, T/C: 99.8%
Second compound 3.16 µM, first compound 0.01 µM
  viability, T/C: 109%
[9]
  viability, T/C: 92.3%
[10]
  viability, T/C: 55.5%
Second compound 10 µM, first compound 0.000316 µM
  viability, T/C: 108%
Second compound 10 µM, first compound 0.001 µM
  viability, T/C: 103%
Second compound 10 µM, first compound 0.00316 µM
  viability, T/C: 98.5%
Second compound 10 µM, first compound 0.01 µM
  viability, T/C: 103%
[11]
  viability, T/C: 84.8%
[12]
  viability, T/C: 57.6%

## COc1cc(C2c3cc4c(cc3C(OC3OC5COC(C)OC5C(O)C3O)C3COC(=O)C23)OCO4)cc(OC)c1O (stereo not drawn) + COC1C(OC(N)=O)C(O)C(Oc2ccc3c(O)c(NC(=O)c4ccc(O)c(CC=C(C)C)c4)c(=O)oc3c2C)OC1(C)C
Second compound 0.0316 µM
  IC50: > 10 µM
Second compound 0.1 µM
  IC50: > 10 µM
Second compound 0.316 µM
  IC50: > 10 µM
Second compound 1 µM
  IC50: > 10 µM
Second compound 3.16 µM
  IC50: > 10 µM
Second compound 10 µM
  IC50: > 10 µM
[1]
  viability, T/C: 106%
[2]
  viability, T/C: 89.3%
[13]
  viability, T/C: 92.4%
[14]
  viability, T/C: 82.1%
[15]
  viability, T/C: 58.6%
[16]
  viability, T/C: 54.2%
[3]
  viability, T/C: 104%
[4]
  viability, T/C: 95.7%
[17]
  viability, T/C: 100%
[18]
  viability, T/C: 84%
[19]
  viability, T/C: 56.8%
[20]
  viability, T/C: 59.4%
[5]
  viability, T/C: 95.6%
[6]
  viability, T/C: 97.8%
[21]
  viability, T/C: 101%
[22]
  viability, T/C: 83%
[23]
  viability, T/C: 55.2%
[24]
  viability, T/C: 64%
[7]
  viability, T/C: 106%
[8]
  viability, T/C: 101%
[25]
  viability, T/C: 96.6%
[26]
  viability, T/C: 103%
[27]
  viability, T/C: 59.7%
[28]
  viability, T/C: 57.4%
[9]
  viability, T/C: 110%
[10]
  viability, T/C: 109%
[29]
  viability, T/C: 99.9%
[30]
  viability, T/C: 84.7%
[31]
  viability, T/C: 67%
[32]
  viability, T/C: 60.6%
[11]
  viability, T/C: 107%
[12]
  viability, T/C: 96.2%
[33]
  viability, T/C: 103%
[34]
  viability, T/C: 88.5%
[35]
  viability, T/C: 65.4%
[36]
  viability, T/C: 61.4%

## COc1cccc2c1C(=O)c1c(O)c3c(c(O)c1C2=O)CC(O)(C(=O)CO)CC3OC1CC(N)C(O)C(C)O1 (stereo not drawn) + COC1C(OC(N)=O)C(O)C(Oc2ccc3c(O)c(NC(=O)c4ccc(O)c(CC=C(C)C)c4)c(=O)oc3c2C)OC1(C)C
Second compound 0.0316 µM
  IC50: > 10 µM
Second compound 0.1 µM
  IC50: > 10 µM
Second compound 0.316 µM
  IC50: > 10 µM
Second compound 1 µM
  IC50: > 10 µM
Second compound 3.16 µM
  IC50: > 10 µM
Second compound 10 µM
  IC50: > 10 µM
[1]
  viability, T/C: 94.3%
[2]
  viability, T/C: 79.1%
[13]
  viability, T/C: 64.9%
[14]
  viability, T/C: 78.1%
[15]
  viability, T/C: 65.2%
[16]
  viability, T/C: 55.3%
[3]
  viability, T/C: 104%
[4]
  viability, T/C: 84.4%
[17]
  viability, T/C: 65.6%
[18]
  viability, T/C: 78.4%
[19]
  viability, T/C: 61.2%
[20]
  viability, T/C: 55.2%
[5]
  viability, T/C: 98.2%
[6]
  viability, T/C: 86.4%
[21]
  viability, T/C: 61.3%
[22]
  viability, T/C: 79.3%
[23]
  viability, T/C: 61.9%
[24]
  viability, T/C: 55.6%
[7]
  viability, T/C: 104%
[8]
  viability, T/C: 92.8%
[25]
  viability, T/C: 68.7%
[26]
  viability, T/C: 76.3%
[27]
  viability, T/C: 71%
[28]
  viability, T/C: 53.1%
[9]
  viability, T/C: 101%
[10]
  viability, T/C: 85.5%
[29]
  viability, T/C: 69.5%
[30]
  viability, T/C: 73%
[31]
  viability, T/C: 67%
[32]
  viability, T/C: 54.7%
[11]
  viability, T/C: 102%
[12]
  viability, T/C: 87.4%
[33]
  viability, T/C: 66.5%
[34]
  viability, T/C: 78%
[35]
  viability, T/C: 70.8%
[36]
  viability, T/C: 58.6%

## O=c1[nH]cc(F)c(=O)[nH]1 + COC1C(OC(N)=O)C(O)C(Oc2ccc3c(O)c(NC(=O)c4ccc(O)c(CC=C(C)C)c4)c(=O)oc3c2C)OC1(C)C
Second compound 0.0316 µM
  IC50: > 10 µM
Second compound 0.1 µM
  IC50: > 10 µM
Second compound 0.316 µM
  IC50: > 10 µM
Second compound 1 µM
  IC50: > 10 µM
Second compound 3.16 µM
  IC50: > 10 µM
Second compound 10 µM
  IC50: > 10 µM
[1]
  viability, T/C: 99.2%
[2]
  viability, T/C: 75.7%
[13]
  viability, T/C: 78.8%
[14]
  viability, T/C: 72.7%
[15]
  viability, T/C: 73.8%
[16]
  viability, T/C: 64.2%
[3]
  viability, T/C: 91.8%
[4]
  viability, T/C: 80.3%
[17]
  viability, T/C: 77.4%
[18]
  viability, T/C: 71.1%
[19]
  viability, T/C: 71%
[20]
  viability, T/C: 75.8%
[5]
  viability, T/C: 91%
[6]
  viability, T/C: 82%
[21]
  viability, T/C: 84.8%
[22]
  viability, T/C: 73.1%
[23]
  viability, T/C: 71.1%
[24]
  viability, T/C: 68.7%
[7]
  viability, T/C: 89.6%
[8]
  viability, T/C: 78.7%
[25]
  viability, T/C: 74.7%
[26]
  viability, T/C: 77.1%
[27]
  viability, T/C: 70.7%
[28]
  viability, T/C: 70.7%
[9]
  viability, T/C: 92.5%
[10]
  viability, T/C: 86.5%
[29]
  viability, T/C: 78.1%
[30]
  viability, T/C: 72.9%
[31]
  viability, T/C: 74.8%
[32]
  viability, T/C: 73.3%
[11]
  viability, T/C: 92.8%
[12]
  viability, T/C: 76.3%
[33]
  viability, T/C: 82.7%
[34]
  viability, T/C: 73.1%
[35]
  viability, T/C: 77.6%
[36]
  viability, T/C: 83.1%
